Measured values reported in US8039487B2, “Piperidine-amide derivatives” (Hoffmann-La Roche Inc., priority 2007, dated 2011).

The molecules below were run against T1, liver carnitine palmitoyl transferase 1 (L-CPT1) (Homo sapiens, UniProt P50416) (assay: L-CPT1 inhibition, spectrophotometric CPT activity assay with DTNB (Ellman's reagent)). Conditions: human liver CPT1 expressed in P. pastoris, cell extracts; carnitine 500 μM, palmitoyl-CoA 80 μM, DTNB 300 μM, pH 7.4.
T1 construct: made in house; host or cells: Pichia pastoris strain X-33 (crude cell-free extract)
T1 sequence (P50416 1-773): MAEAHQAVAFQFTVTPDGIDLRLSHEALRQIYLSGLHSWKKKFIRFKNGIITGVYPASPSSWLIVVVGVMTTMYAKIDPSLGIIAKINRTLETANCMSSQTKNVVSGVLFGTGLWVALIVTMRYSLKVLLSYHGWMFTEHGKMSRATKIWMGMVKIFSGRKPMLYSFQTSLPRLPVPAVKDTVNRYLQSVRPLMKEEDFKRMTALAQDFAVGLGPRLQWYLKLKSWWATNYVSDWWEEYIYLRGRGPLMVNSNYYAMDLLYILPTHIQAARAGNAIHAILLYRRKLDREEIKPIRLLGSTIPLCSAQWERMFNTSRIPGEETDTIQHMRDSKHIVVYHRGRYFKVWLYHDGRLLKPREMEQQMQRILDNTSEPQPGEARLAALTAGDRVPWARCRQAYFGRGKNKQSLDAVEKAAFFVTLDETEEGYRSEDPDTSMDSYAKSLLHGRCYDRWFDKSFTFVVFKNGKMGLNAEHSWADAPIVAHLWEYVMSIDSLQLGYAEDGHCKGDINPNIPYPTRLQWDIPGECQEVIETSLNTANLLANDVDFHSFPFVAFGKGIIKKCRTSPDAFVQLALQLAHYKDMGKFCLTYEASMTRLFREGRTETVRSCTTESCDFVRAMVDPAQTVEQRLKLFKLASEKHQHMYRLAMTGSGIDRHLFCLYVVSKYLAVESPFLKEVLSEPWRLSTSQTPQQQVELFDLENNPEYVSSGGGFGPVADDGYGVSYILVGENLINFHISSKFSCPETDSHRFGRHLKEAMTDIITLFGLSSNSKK
Type: biochemical
Protocol: The following tests were carried out in order to determine the activity of the compounds of the present invention. Background information on the performed assays can be found in: Jackson et al., 1999, Biochem. J. 341, 483-489 and Jackson et al., 2000, J. Biol. Chem. 275, 19560-19566.
Human liver and muscle CPT1 cDNAs and rat CPT2 cDNA were subcloned in pGAPZB or pGAPZA, respectively. These plasmids were used to transform P. pastoris strain X-33 via electroporation after the preparation of electrocompetent cells. High copy number clones were selected where necessary using 0.5 or 1 mg/ml Zeocin. Cultures for activity measurements were induced for 16 h in YPD medium (1% yeast extract, 2% peptone, 2% glucose). Crude cell extracts were prepared by disrupting the cells with glass beads or French Press, depending on fermenter sizes. After centrifugation, the cell-free extracts were resuspended in cell breaking buffer (50 mM Tris, pH7.4, 100 mM KCl, 1 mM EDTA) in the presence of a protease inhibitor cocktail, before aliquoting and freezing at −20° C.
CPT activity was measured using a spectrophotometric assay using 5,5′-dithio-bis-(2-nitrobenzoic acid) (DTNB) also called Ellman's reagent. The HS-CoA released on the formation of acylcarnitine from carnitine (500 μM) and palmitoyl-CoA (80 μM) reduced DTNB (300 μM) forming 5-mercapto-(2-nitrobenzoic acid) which absorbed at 410 nm with a molar extinction coefficient of 13600 M^−1cm^−1. The assay buffer contained 120 mM KCl, 25 mM Tris, pH 7.4, 1 mM EDTA. This assay was used for the identification of selective inhibitors of the liver CPT1 isoform versus the muscle CPT1 and CPT2 isoforms.

| IC50 | Structure (SMILES) |
| --- | --- |
| 79.4 nM | COc1ccc(-c2nc([C@H]3CCCCN3C(=O)COc3ccccc3)cs2)cn1 [Example 33, 1-{(R)-2-[2-(6-Methoxy-pyridin-3-yl)-thiazol-4-yl]-piperidin-1-yl}-2-phenoxy-ethanone] |
| 365 nM | COC(=O)c1ccc(-c2nc([C@H]3CCCCN3C(=O)COc3ccccc3)cs2)cc1 [Example 36, 4-{4-[(R)-1-(2-Phenoxy-acetyl)-piperidin-2-yl]-thiazol-2-yl}-benzoic acid methyl ester] |
| 33.5 nM | O=C(O)c1cccc(-c2csc([C@H]3CCCCN3C(=O)COc3ccccc3)n2)c1 [Example 5, 3-{2-[(R)-1-(2-Phenoxy-acetyl)-piperidin-2-yl]-thiazol-4-yl}-benzoic acid] |
| 398 nM | O=C(COc1ccccc1)N1CCCC[C@@H]1c1csc(C2COc3ccccc3O2)n1 (stereo partly drawn) [Example 38, 1-{(R)-2-[2-(2,3-Dihydro-benzo[1,4]dioxin-2-yl)-thiazol-4-yl]-piperidin-1-yl}-2-phenoxy-ethanone] |
| 725 nM | O=C(COc1ccccc1)N1CCCC[C@@H]1c1csc(Cc2ccc(Cl)cc2)n1 [Example 37, 1-{(R)-2-[2-(4-Chloro-benzyl)-thiazol-4-yl]-piperidin-1-yl}-2-phenoxy-ethanone] |
| 935 nM | O=C(COc1ccccc1)N1CCCC[C@@H]1c1csc(-c2ccc(C(F)(F)F)cn2)n1 [Example 28, 2-Phenoxy-1-{(R)-2-[2-(5-trifluoromethyl-pyridin-2-yl)-thiazol-4-yl]-piperidin-1-yl}-ethanone] |
| 40.5 nM | N#Cc1ccc(-c2csc([C@H]3CCCCN3C(=O)COc3ccccc3)n2)cc1 [Example 20, 4-{2-[(R)-1-(2-Phenoxy-acetyl)-piperidin-2-yl]-thiazol-4-yl}-benzonitrile] |
| 313 nM | O=C(COc1ccccc1)N1CCCC[C@@H]1c1csc(-c2ccc(C(F)(F)F)nc2)n1 [Example 27, 2-Phenoxy-1-{(R)-2-[2-(6-trifluoromethyl-pyridin-3-yl)-thiazol-4-yl]-piperidin-1-yl}-ethanone] |
| 32.6 nM | CC(=O)Nc1ccc(-c2csc([C@H]3CCCCN3C(=O)COc3ccccc3)n2)cc1 [Example 15, N-(4-{2-[(R)-1-(2-Phenoxy-acetyl)-piperidin-2-yl]-thiazol-4-yl}-phenyl)-acetamide] |
| 129 nM | O=C(O)c1ccc(-c2csc([C@H]3CCCCN3C(=O)COc3ccccc3)n2)cc1 [Example 3, 4-{2-[(R)-1-(2-Phenoxy-acetyl)-piperidin-2-yl]-thiazol-4-yl}-benzoic acid] |
| 224 nM | O=C(COc1ccccc1)N1CCCC[C@@H]1c1csc(-c2cnccn2)n1 [Example 29, 2-Phenoxy-1-[(R)-2-(2-pyrazin-2-yl-thiazol-4-yl)-piperidin-1-yl]-ethanone] |
| 56.2 nM | O=C(COc1ccccc1)N1CCCC[C@@H]1c1csc(-c2cccnc2)n1 [Example 31, 2-Phenoxy-1-[(R)-2-(2-pyridin-3-yl-thiazol-4-yl)-piperidin-1-yl]-ethanone] |
| 88.6 nM | O=C(COc1ccccc1)N1CCCC[C@@H]1c1nc(-c2ccc(Br)s2)cs1 [Example 23, 1-{(R)-2-[4-(5-Bromo-thiophen-2-yl)-thiazol-2-yl]-piperidin-1-yl}-2-phenoxy-ethanone] |
| 95 nM | O=C(COc1ccccc1)N1CCCC[C@@H]1c1nc(-c2ccc(Cl)nc2)cs1 [Example 22, 1-{(R)-2-[4-(6-Chloro-pyridin-3-yl)-thiazol-2-yl]-piperidin-1-yl}-2-phenoxy-ethanone] |
| 420 nM | CN(C)c1ccc(-c2csc([C@H]3CCCCN3C(=O)COc3ccccc3)n2)cc1 [Example 18, 1-{(R)-2-[4-(4-Dimethylamino-phenyl)-thiazol-2-yl]-piperidin-1-yl}-2-phenoxy-ethanone] |
| 42.4 nM | COC(=O)c1cccc(-c2csc([C@H]3CCCCN3C(=O)COc3ccccc3)n2)n1 [Example 13, 6-{2-[(R)-1-(2-Phenoxy-acetyl)-piperidin-2-yl]-thiazol-4-yl}-pyridine-2-carboxylic acid methyl ester] |

| IC50 | Structure (SMILES) |
| --- | --- |
| 296 nM | O=C(O)c1ccc(-c2nc([C@H]3CCCCN3C(=O)COc3ccccc3)cs2)cc1 [Example 41, 4-{4-[(R)-1-(2-Phenoxy-acetyl)-piperidin-2-yl]-thiazol-2-yl}-benzoic acid] |
| 268 nM | O=C(COc1ccccc1)N1CCCC[C@@H]1c1nc(-c2ccccc2)cs1 [Example 2, 2-Phenoxy-1-[(R)-2-(4-phenyl-thiazol-2-yl)-piperidin-1-yl]-ethanone] |
| 1400 nM | O=C(COc1ccccc1)N1CCCC[C@@H]1c1nc(-c2ccc(Cl)cc2)cs1 [Example 1, 1-{(R)-2-[4-(4-Chloro-phenyl)-thiazol-2-yl]-piperidin-1-yl}-2-phenoxy-ethanone] |
| 141 nM | CS(=O)(=O)c1ccc(-c2csc([C@H]3CCCCN3C(=O)COc3ccccc3)n2)cc1 [Example 12, 1-{(R)-2-[4-(4-Methanesulfonyl-phenyl)-thiazol-2-yl]-piperidin-1-yl}-2-phenoxy-ethanone] |
| 80.3 nM | O=C(O)c1cccc(-c2nc([C@H]3CCCCN3C(=O)COc3ccccc3)cs2)c1 [Example 40, 3-{4-[(R)-1-(2-Phenoxy-acetyl)-piperidin-2-yl]-thiazol-2-yl}-benzoic acid] |
| 68 nM | O=C(COc1ccccc1)N1CCCC[C@@H]1c1nc(-c2ccncc2)cs1 [Example 10, 2-Phenoxy-1-[(R)-2-(4-pyridin-4-yl-thiazol-2-yl)-piperidin-1-yl]-ethanone] |
| 272 nM | COc1ccccc1-c1csc([C@H]2CCCCN2C(=O)COc2ccccc2)n1 [Example 11, 1-{(R)-2-[4-(2-Methoxy-phenyl)-thiazol-2-yl]-piperidin-1-yl}-2-phenoxy-ethanone] |
| 24.1 nM | O=C(O)c1cccc(-c2csc([C@H]3CCCCN3C(=O)COc3ccccc3)n2)c1 [Example 44, Sodium; 3-{2-[(R)-1-(2-phenoxy-acetyl)-piperidin-2-yl]-thiazol-4-yl}-benzoate] |
| 130 nM | O=C(COc1ccccc1)N1CCCC[C@@H]1c1csc(-c2n[nH]c3ccccc23)n1 [Example 26, 1-{(R)-2-[2-(1H-Indazol-3-yl)-thiazol-4-yl]-piperidin-1-yl}-2-phenoxy-ethanone] |
| 155 nM | O=C(COc1ccccc1)N1CCCC[C@@H]1c1csc(-c2ccc(F)cc2)n1 [Example 35, 1-{(R)-2-[2-(4-Fluoro-phenyl)-thiazol-4-yl]-piperidin-1-yl}-2-phenoxy-ethanone] |
| 79.6 nM | O=C(COc1ccccc1)N1CCCC[C@@H]1c1nc(-c2ccc(O)cc2)cs1 [Example 16, 1-{(R)-2-[4-(4-Hydroxy-phenyl)-thiazol-2-yl]-piperidin-1-yl}-2-phenoxy-ethanone] |
| 798 nM | O=C(COc1ccccc1)N1CCCC[C@@H]1c1nc(-c2ccc(OC(F)(F)F)cc2)cs1 [Example 4, 2-Phenoxy-1-{(R)-2-[4-(4-trifluoromethoxy-phenyl)-thiazol-2-yl]-piperidin-1-yl}-ethanone] |
| 25 nM | O=C(COc1ccccc1)N1CCCC[C@@H]1c1nc(-c2cccnc2)cs1 [Example 8, 2-Phenoxy-1-[(R)-2-(4-pyridin-3-yl-thiazol-2-yl)-piperidin-1-yl]-ethanone] |
| 300 nM | COC(=O)c1cccc(-c2nc([C@H]3CCCCN3C(=O)COc3ccccc3)sc2C)c1 [Example 45, 3-{5-Methyl-2-[(R)-1-(2-phenoxy-acetyl)-piperidin-2-yl]-thiazol-4-yl}-benzoic acid methyl ester] |
| 247 nM | COc1ccc(Cl)cc1-c1csc([C@H]2CCCCN2C(=O)COc2ccccc2)n1 [Example 9, 1-{(R)-2-[4-(5-Chloro-2-methoxy-phenyl)-thiazol-2-yl]-piperidin-1-yl}-2-phenoxy-ethanone] |
